The record followed here is ChEMBL document CHEMBL2424513, “Design, synthesis and biological studies of survivin dimerization modulators that prolong mitotic cycle” (Bioorg Med Chem Lett, 2013).

Calls of active or inactive are those of the source. No cut-off for these calls is given here.

Experiment [1] deals with Baculoviral IAP repeat-containing protein 5 (Homo sapiens) (UniProt O15392). The experiment can be described thus: Modulation of GFP-tagged survivin dimerization in HUVEC assessed as time length of mitosis at 100 nM after 48 hrs by real-time video microscopy (reference value: 51.2 +/- 2.3 mins).
Sequence of Baculoviral IAP repeat-containing protein 5 (Homo sapiens) (O15392 whole entry): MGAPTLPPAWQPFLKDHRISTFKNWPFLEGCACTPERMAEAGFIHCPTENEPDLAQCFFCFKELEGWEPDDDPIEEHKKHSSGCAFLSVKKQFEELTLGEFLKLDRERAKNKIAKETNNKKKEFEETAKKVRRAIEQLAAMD
For experiment [2] the target is unchanged. The experiment can be described thus: Modulation of GFP-tagged survivin dimerization in HUVEC assessed as defect in mitotic progression at 50 to 100 nM after 48 hrs by real-time video microscopy relative to control.
The target is the same in experiment [3]. The experiment in a line: Modulation of GFP-tagged survivin dimerization in human PC3 cells assessed as defect in mitotic progression at 50 to 100 nM after 72 hrs by real-time video microscopy. The experiment is classed as cell-based. The note with it: PC-3.
Experiment [4] has the same target. The experiment in a line: Modulation of GFP-tagged survivin dimerization in HUVEC assessed as defect in mitotic progression at 10 nM after 48 hrs by real-time video microscopy.
For experiment [5] the target is unchanged. The experiment can be described thus: Modulation of GFP-tagged survivin dimerization in human PC3 cells assessed as defect in mitotic progression at 10 nM after 72 hrs by real-time video microscopy. It counts as cell-based. The note with it: PC-3.
The target is the same in experiment [6]. The experiment can be described thus: Modulation of GFP-tagged survivin dimerization in HUVEC assessed as reduction in cell number at 50 to 100 nM by real-time video microscopy. The note with it: TDE = time-dependent effect.
For experiment [7] the target is unchanged. The experiment can be described thus: Modulation of GFP-tagged survivin dimerization in HUVEC assessed as reduction in cell number after 48 hrs by real-time video microscopy.
For experiment [8] the target is unchanged. The experiment in a line: Modulation of GFP-tagged survivin dimerization in human PC3 cells assessed as reduction in cell number at 50 to 100 nM after 72 hrs by real-time video microscopy relative to control. It counts as cell-based. The note with it: PC-3.
Experiment [9] has the same target. The experiment can be described thus: Modulation of GFP-tagged survivin dimerization in HUVEC assessed as reduction in cell number at 50 to 100 nM after 48 hrs by real-time video microscopy relative to control.
Experiment [10] shares this target. The experiment in a line: Modulation of GFP-tagged survivin dimerization in HUVEC assessed as distorted, diffused or decondensed CPC organization at 10 nM after 48 hrs by real-time video microscopy relative to control.
Experiment [11] has the same target. The experiment can be described thus: Modulation of GFP-tagged survivin dimerization in HUVEC assessed as distorted, diffused or decondensed CPC organization at 50 to 100 nM after 48 hrs by real-time video microscopy relative to control.
Experiment [12] has the same target. The experiment in a line: Modulation of GFP-tagged survivin dimerization in human PC3 cells assessed as distorted, diffused or decondensed CPC organization at 50 to 100 nM after 72 hrs by real-time video microscopy relative to control. It counts as cell-based. The note with it: PC-3.
Experiment [13] has the same target. The experiment in a line: Modulation of GFP-tagged survivin dimerization in human PC3 cells assessed as distorted, diffused or decondensed CPC organization at 10 nM after 72 hrs by real-time video microscopy relative to control. It counts as cell-based. The note with it: PC-3.

For `N#Cc1c(-c2ccccc2)cc(-c2cc(Cl)ccc2O)[nH]c1=O`, the TIME in [1] is 1.04 h. Besides, the outcome in experiment [2] and in experiment [3] was inactive.
For the compound `N#Cc1c(-c2cccc(OCc3ccccc3)c2)cc(-c2cc(Cl)cc(I)c2O)[nH]c1=O`, the outcome in experiment [4], in experiment [5], in [10] and in experiment [13] was inactive. In addition, the Activity result in experiment [6] was “tde”; in experiment [7], “Dose-dependent effect”; in experiment [8] it was 50%; in experiment [9], 50%. The outcome in [2], in experiment [3], in experiment [11] and in experiment [12] was Active.
Take `N#Cc1c(-c2cc(OCc3ccccc3)cc(OCc3ccccc3)c2)cc(-c2cc(Cl)ccc2O)[nH]c1=O`: the outcome in [4], in [5], in [2], in experiment [3], in [10] and in experiment [13] was inactive. Besides, the Activity result in [6] was “tde”; in experiment [7], “Dose-dependent effect”. The TIME in experiment [1] is 2.57 h. The fold change (FC) in experiment [2] and in experiment [3] was 2 throughout. Moreover, the outcome in experiment [11] and in [12] was Active.
